Test results: paper PMC8565742 (PLoS Neglected Tropical Diseases, 2021)
Read-outs that look alike come from different tables or passages of the source.

How the values were obtained:
schistosomes = tested on: schistosomes; parameters: method as in PMID 27128493; settings: read-out: IC50 in phenotypic assays; cited from earlier work
Sm.TRPMPZQ[R1514A] = test: Ca2+ signal in cells expressing the binding pocket mutant; type: cell-based, Schistosoma mansoni
[1] = tested on: untransfected HEK293 cells; test: Counterscreen, agonist mode, Ca2+ signal in untransfected HEK cells; type: cell-based; settings: for EC50: Homo sapiens, HEK293, unit inferred, read-out: HEK AG Final EC50; for EC50 / HEK AG Averaged Max % Response: counterscreen titration
Method: HEK cells were transfected with cDNA (400μg/ml DNA) encoding Sm.TRPMPZQ using a Maxcyte STX electroporation system and incubated overnight at 37°C. This system is uniquely capabable of large scale transfections providing one batch of cells ready for large scale HTS [30]. Briefly, the HEK cells were resuspended at 10^8/ml in Maxcyte electroporation buffer. Plasmid DNA was added to the cells in buffer to achieve a concentration of 400 μg/ml from a stock of 5mg/ml (in TE buffer). This mixture was loaded into the appropriate cassette, inserted into the machine, and cells electroporated. Cells were then frozen to provide a single supply of transfected cells for all subsequent assays. On the day of the assays, cells were thawed in a 37°C waterbath, and resuspended in DMEM + 10% FBS and counted. The cells were pelleted by centrifugation at 170xg for 5 minutes. The media was aspirated, and the remaining pellet was resuspended in 1x HBSS with 20 mM HEPES and 1% DMSO to achieve 1.33x10^6cells/ml. This cell suspension was then dispensed at 3 μl/well to the 1536 well plates (Greiner Bio One part 789072) at a density of 4,000 cells/well. Measurements of fluorescence intensity (λex = 470 nm, λem = 535 nm) were made using a FLIPR (Molecular Devices FLIPR Tetra). A read of basal fluorescence values was made (5s) prior to addition of compounds or controls (30 nl). In both ‘agonist’ and ‘antagonist mode’, the total assay volume was 6μl (1% DMSO). […] Ligand performance was categorized using an algorithm based on the activity of the entire dataset to define a ‘hit-cutoff’ parameter for both agonist-mode and antagonist-mode screening. Any compound with greater percent activation than this cutoff was assigned as ‘active’ prior to titration and counter-screening. Titration assays were executed using the same reagents, protocols and detection systems, done as 10-point concentration-response curves, performed in triplicate. Counter-screening was performed using untransfected HEK293 cells for comparison with results testing the same compounds effect on cells expressing Sm.TRPMPZQ, with ATP used as the positive control. For each compound, activity was plotted against compound concentration and data were fitted with a sigmoidal function. In order to be considered a hit at this stage a compound must achieve a EC50<5 μM for agonists and IC50 <5 μM for antagonists. All compounds selected for titration were subjected to LC-MS analysis to confirm mass and sample purity. ChemAxon (https://www.chemaxon.com) academic licensing was provided for the use of Instant JChem (ver. 15.10.12.0) to perform compound mining of the libraries utilized in this effort.

adult schistosome worms = test: Schistosome mobility assay ex vivo; type: cell-based, S. mansoni
Method: Adult schistosomes were harvested from the mesenteric vasculature of female Swiss Webster mice previously infected (~49 days earlier) with S. mansoni cercariae (NMRI strain) by the Schistosomiasis Resource Center at the Biomedical Research Institute (BRI, Rockville, MD). Harvested schistosomes were washed in RPMI 1640 supplemented with 5% heat inactivated FBS (Gibco), HEPES (25 mM) and penicillin-streptomycin (100 units/mL). After isolation, worms were incubated overnight (37°C/5% CO2) in vented petri dishes (100x25 mm). Movement assays were performed using male and female worms in six well dishes (~5 individual worms/3ml media per well). Video recordings of worm motility (4 frames/sec) were captured using a Zeiss Discovery v20 stereomicroscope coupled to a QiCAM 12-bit cooled color CCD camera controlled by Metamorph imaging software.

Sm.TRPMPZQ [2] = target: T1, Sm.TRPMPZQ (Schistosoma mansoni, UniProt A0A5K4F0X5); test: Single channel recording, inside-out patch, HEK293 stably expressing Sm.TRPMPZQ; type: biochemical; settings: for mean slope single-channel conductance: agonist 10 μM, Ca2+-free, inside-out, mean ± SD
T1 sequence (A0A5K4F0X5 entry or part of it): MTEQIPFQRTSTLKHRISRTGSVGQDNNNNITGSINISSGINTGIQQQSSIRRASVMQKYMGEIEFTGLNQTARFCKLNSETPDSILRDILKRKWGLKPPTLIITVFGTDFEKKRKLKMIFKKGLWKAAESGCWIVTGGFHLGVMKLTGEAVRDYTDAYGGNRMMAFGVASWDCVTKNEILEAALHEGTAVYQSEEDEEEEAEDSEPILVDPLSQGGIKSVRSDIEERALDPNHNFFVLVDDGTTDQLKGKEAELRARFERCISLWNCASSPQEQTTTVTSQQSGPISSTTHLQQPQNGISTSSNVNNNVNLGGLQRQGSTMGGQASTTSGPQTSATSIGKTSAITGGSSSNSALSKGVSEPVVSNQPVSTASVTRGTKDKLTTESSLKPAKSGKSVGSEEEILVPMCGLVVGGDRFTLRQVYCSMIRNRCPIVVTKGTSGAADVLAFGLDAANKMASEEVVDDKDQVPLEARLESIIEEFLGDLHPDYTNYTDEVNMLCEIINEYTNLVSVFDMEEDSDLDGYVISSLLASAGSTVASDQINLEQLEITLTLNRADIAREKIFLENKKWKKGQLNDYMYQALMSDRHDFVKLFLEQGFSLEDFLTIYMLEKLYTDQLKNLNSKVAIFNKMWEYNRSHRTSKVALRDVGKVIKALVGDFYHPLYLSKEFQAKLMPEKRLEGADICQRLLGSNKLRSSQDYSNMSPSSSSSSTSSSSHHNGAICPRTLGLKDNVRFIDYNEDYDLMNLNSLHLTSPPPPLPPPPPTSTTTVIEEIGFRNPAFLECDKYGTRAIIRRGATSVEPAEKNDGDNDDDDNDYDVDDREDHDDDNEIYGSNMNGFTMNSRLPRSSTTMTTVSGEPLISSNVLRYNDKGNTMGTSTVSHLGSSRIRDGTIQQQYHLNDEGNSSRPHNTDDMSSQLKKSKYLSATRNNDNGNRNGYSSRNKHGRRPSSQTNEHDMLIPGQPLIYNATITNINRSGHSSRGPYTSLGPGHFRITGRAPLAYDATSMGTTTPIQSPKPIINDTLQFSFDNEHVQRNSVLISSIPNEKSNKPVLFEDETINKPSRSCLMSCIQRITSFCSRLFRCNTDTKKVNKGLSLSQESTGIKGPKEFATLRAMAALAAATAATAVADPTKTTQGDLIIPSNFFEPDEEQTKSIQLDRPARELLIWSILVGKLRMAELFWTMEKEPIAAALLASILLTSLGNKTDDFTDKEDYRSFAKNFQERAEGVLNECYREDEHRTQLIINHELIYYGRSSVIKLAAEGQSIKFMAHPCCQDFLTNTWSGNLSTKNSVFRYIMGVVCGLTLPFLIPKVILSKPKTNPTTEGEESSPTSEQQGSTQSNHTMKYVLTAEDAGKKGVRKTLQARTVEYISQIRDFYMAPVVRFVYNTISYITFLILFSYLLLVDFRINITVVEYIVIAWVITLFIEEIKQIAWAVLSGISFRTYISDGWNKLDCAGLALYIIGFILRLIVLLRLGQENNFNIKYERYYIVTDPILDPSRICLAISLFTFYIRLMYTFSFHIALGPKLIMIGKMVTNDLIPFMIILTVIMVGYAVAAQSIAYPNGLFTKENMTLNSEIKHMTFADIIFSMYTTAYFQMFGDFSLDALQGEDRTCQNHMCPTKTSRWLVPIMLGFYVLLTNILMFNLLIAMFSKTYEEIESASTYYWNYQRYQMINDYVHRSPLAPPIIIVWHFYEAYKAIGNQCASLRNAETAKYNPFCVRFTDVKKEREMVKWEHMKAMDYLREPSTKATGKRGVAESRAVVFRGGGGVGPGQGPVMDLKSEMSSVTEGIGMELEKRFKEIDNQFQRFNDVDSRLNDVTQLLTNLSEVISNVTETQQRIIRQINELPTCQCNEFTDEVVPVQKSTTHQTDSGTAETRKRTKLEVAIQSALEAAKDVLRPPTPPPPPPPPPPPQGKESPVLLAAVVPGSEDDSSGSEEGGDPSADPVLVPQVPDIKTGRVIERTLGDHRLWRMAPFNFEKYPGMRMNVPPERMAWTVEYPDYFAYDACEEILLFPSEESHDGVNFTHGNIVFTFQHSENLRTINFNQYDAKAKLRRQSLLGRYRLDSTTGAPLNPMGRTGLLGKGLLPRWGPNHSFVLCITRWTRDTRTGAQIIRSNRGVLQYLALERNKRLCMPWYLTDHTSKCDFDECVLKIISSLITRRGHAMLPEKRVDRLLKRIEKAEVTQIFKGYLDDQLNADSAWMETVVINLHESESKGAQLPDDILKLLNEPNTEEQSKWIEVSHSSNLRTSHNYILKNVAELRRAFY
Method: For electrophysiological analysis, a HEK293 cell line stably expressing Sm.TRPMPZQ [7] was generated using the Flp-In T-REx system (K650001, Thermofisher Scientific, Carlsbad, CA). Flp-In T-REx HEK293 cells were cultured in Dulbecco’s modified Eagle’s medium supplemented with 10% fetal bovine serum, penicillin (100 units/ml), streptomycin (100 μg/ml), L-glutamine (290 μg/ml), blasticidin (10 μg/ml), and hydromycin B (100 μg/ml). HEK293 cells were plated onto glass coverslips and Sm.TRPMPZQ expression induced by addition of tetracycline (2 μg/ml) to the media 24–48 hours before recording. Prior to recording, coverslips were secured within a recording chamber of an Olympus BX51WI upright microscope. Cells were bathed in a solution containing 145 mM KCl, 10 mM HEPES, 1 mM EGTA (pH 7.2, 310–315 mOsm/kg with sucrose). The pipette solution contained 140 mM LiCl, 10 mM HEPES, 1 mM EGTA (pH 7.4, 280–285 mOsm/kg with sucrose). Patch pipettes were made of borosilicate glass (BF150-110-10, Sutter Instrument, Novato, CA) pulled on a vertical puller (Narishige, Amityville, NY, Model PC-10) with resistances 8–10 MΩ. […] Signals were filtered with an 8-pole Bessel low pass filter at 1 kHz, and sampled at 20 kHz. Open probability (Popen) was assessed in single channel search mode using Clampfit 10 software. All recordings were done at room temperature. Data represent mean±standard error for ≥3 independent experiments.

Sm.TRPMPZQ [3] = target: T1, Sm.TRPMPZQ; settings: confocal Ca2+ imaging; cited from earlier work

Structure (SMILES)	IC50 (schistosomes) [µM]	Ca2+ elevation at binding site mutant (Sm.TRPMPZQ[R1514A])	EC50 ([1]; S2 Table) [µM]	HEK AG Averaged Max % Response ([1]; S2 Table) [%]	activity on counter-screening in naïve HEK cells ([1]; concentration-response)	effect on adult worms ex vivo (adult schistosome worms; agonist alone)	mean slope single-channel conductance (Sm.TRPMPZQ [2]) [pS]	EC50 ([1]; S3 Table) [µM]	HEK AG Averaged Max % Response ([1]; S3 Table) [%]	recovery of worms in continued presence of PZQ (adult schistosome worms; 50μM, PZQ 250 nM, 24 hours, compared to PZQ alone)	effect on worm motility (adult schistosome worms; applied alone to intact worms)	effect on single channel open probability (Popen) (Sm.TRPMPZQ [2]; 50 μM, channels activated by PZQ or AG1 (10 μM))	ΔF/F, amplitude of Ca2+ transient (Sm.TRPMPZQ [3])	HEK AG Averaged Max % Response ([1]; S2 Table, listed as SR-01000003100-3) [%]	HEK AG Averaged Max % Response ([1]; S2 Table, listed as SR-01000003100-19) [%]	change in basal fluorescence ([1]; ≤30 μM, untransfected HEK293 cells)
COc1ccc(-c2nnc3ccc(-c4cccc(C(C)C)c4)cn23)cc1OC [AG1, 3-(3,4-Dimethoxyphenyl)-6-(3-propan-2-ylphenyl)-[1,2,4]triazolo[4,3-a]pyridine]	~1.6	ablated AG1 activity	> 12.4	8.295	no activity	evoked a sustained contraction	61 ± 4									
Cc1onc(-c2ccccc2)c1C(=O)N1CCN(C2c3ccccc3-c3ccccc32)CC1 [ANT1, 1-(9H-fluoren-9-yl)-4-(5-methyl-3-phenyl-1,2-oxazole-4-carbonyl)piperazine]								> 12.4	25.3604	enhanced recovery	did not change worm motility	decreased Popen				
O=C(C1CCCCC1)N1CC(=O)N2CCc3ccccc3C2C1 (stereo not shown) [PZQ, praziquantel, reference compound]		did not elevate Ca^2+	> 12.4				76 ± 8						12.3±2.1	2.271	17.5496	failed to elicit any change in basal fluorescence
